Laboratory results published in ChEMBL document CHEMBL4673196, “Synthesis and sigma receptor affinity of spiro[[2]benzopyran-1,1-cyclohexanes] with an exocyclic amino moiety in the 3-position” (RSC Med Chem, 2021).
Calls of active or inactive are those of the source. The calls are words filed in the database; no cut-off is given here.

Assays:
[1] = target: Sigma non-opioid intracellular receptor 1 (Cavia porcellus, UniProt Q60492); experiment: Displacement of [3H]-pentazocine from guinea pig brain sigma 1 receptor incubated for 120 mins by liquid scintillation counting method; type: tissue-based
Chain of Sigma non-opioid intracellular receptor 1 (Q60492 whole entry): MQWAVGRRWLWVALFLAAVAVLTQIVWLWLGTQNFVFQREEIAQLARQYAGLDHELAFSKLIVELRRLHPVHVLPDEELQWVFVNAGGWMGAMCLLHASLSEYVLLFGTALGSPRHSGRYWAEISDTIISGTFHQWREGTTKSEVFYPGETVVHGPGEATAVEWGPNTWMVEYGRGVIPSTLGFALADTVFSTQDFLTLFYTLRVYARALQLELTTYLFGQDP

[2] = target: T1, Kappa-type opioid receptor (Homo sapiens, UniProt P41145); experiment: Binding affinity to KOR (unknown origin)
T1 sequence (P41145 whole entry): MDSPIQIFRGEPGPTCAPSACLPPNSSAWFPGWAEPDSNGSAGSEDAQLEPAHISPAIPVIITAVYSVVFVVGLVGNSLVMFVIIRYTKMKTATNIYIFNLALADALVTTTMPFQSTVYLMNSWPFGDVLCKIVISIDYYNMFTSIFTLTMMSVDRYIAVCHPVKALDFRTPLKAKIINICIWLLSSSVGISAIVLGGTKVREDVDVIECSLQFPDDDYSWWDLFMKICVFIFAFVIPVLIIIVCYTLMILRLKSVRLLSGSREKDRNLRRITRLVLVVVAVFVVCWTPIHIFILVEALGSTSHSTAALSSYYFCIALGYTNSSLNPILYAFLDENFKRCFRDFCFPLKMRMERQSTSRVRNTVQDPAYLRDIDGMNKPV

Mu-type opioid receptor [3] = target: T2, Mu-type opioid receptor (Homo sapiens, UniProt P35372); experiment: Binding affinity to MOR (unknown origin)
T2 sequence (P35372 whole entry): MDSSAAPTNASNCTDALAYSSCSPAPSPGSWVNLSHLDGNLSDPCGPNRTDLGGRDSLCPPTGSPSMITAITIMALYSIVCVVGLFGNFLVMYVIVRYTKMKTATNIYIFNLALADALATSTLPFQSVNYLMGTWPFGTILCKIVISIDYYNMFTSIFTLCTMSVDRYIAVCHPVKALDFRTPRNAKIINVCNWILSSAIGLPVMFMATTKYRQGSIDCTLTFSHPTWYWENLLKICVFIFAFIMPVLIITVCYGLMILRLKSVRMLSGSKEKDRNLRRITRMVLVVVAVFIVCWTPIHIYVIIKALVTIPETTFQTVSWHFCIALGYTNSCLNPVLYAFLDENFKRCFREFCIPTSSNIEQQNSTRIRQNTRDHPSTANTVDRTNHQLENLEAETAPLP

[4] = target: T3, Sigma intracellular receptor 2 (Rattus norvegicus, UniProt Q5U3Y7); experiment: Displacement of [3H]-DTG from Sprague-Dawley rat liver sigma 2 receptor incubated for 120 mins by liquid scintillation counting method; type: tissue-based
T3 sequence (Q5U3Y7 whole entry): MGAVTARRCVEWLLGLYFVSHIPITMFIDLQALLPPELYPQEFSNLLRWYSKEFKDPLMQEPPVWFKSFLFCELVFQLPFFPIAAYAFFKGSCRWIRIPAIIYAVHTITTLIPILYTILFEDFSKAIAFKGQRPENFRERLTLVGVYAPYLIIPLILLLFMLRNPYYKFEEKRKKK

[5] = target: T4, Delta-type opioid receptor (Homo sapiens, UniProt P41143); experiment: Binding affinity to DOR (unknown origin)
T4 sequence (P41143 whole entry): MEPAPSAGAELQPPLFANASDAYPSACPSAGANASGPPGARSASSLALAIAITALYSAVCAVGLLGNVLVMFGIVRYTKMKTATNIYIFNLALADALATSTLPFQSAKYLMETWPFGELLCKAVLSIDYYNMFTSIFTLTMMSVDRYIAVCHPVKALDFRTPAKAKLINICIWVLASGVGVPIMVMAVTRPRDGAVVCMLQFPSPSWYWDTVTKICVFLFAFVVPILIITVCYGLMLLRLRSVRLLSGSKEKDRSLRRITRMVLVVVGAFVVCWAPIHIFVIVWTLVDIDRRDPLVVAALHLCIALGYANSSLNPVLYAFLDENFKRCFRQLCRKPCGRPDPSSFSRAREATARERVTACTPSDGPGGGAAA

Mu-type opioid receptor [6] = target: T2, Mu-type opioid receptor; experiment: Binding affinity to MOR (unknown origin) at <= 1 uM; conditions: dose microM <=1
[7] = target: T1, Kappa-type opioid receptor; experiment: Binding affinity to KOR (unknown origin) at <= 1 uM; conditions: dose microM <=1
[8] = target: T5, Sigma intracellular receptor 2 (Rattus norvegicus) (UniProt Q5U3Y7); experiment: Displacement of [3H]-DTG from Sprague-Dawley rat liver sigma 2 receptor at 1 uM incubated for 120 mins by liquid scintillation counting method relative to control; type: tissue-based
T5 sequence (whole entry): T3 sequence (Q5U3Y7 whole entry)

[9] = target: T4, Delta-type opioid receptor; experiment: Binding affinity to DOR (unknown origin) at <= 1 uM; conditions: dose microM <=1

Row | Ki [1] | Ki [2] | Ki (Mu-type opioid receptor [3]) | Ki [4] | Ki [5] | Activity (Mu-type opioid receptor [6]) | Activity [7] | inhibition [8] | Activity [9] | Structure (SMILES)
1 | 0.0054 µM | 0.407 µM | 0.696 µM | 0.06 µM | 0.15 µM |  |  |  |  | c1ccc2c(c1)CCO[C@@]21CCC[C@H](NCC2CCCCC2)C1 (relative stereo)
2 | 0.015 µM |  |  |  |  | inactive | inactive | 34% | inactive | CN(CC1CCCCC1)[C@H]1CCC[C@]2(C1)OCCc1ccccc12 (relative stereo)
3 | 0.095 µM |  |  | 0.34 µM |  |  |  |  |  | c1ccc(CN[C@H]2CCC[C@]3(C2)OCCc2ccccc23)cc1 (relative stereo)
4 | 0.278 µM |  |  |  |  |  |  | 24% |  | CN(Cc1ccccc1)[C@H]1CCC[C@]2(C1)OCCc1ccccc12 (relative stereo)
